Experimental data from paper PMC9401491, “The Novel Nucleoside Analogue ProTide NUC-7738 Overcomes Cancer Resistance Mechanisms In Vitro and in a First-In-Human Phase I Clinical Trial” (Clinical Cancer Research, 2021).
Like-named read-outs stand apart in the source and are kept apart here.

Legend:
[1] = set-up: method as in PMID 22833171, PMID 24419340; settings: human serum; cited from earlier work
renal cancer cell lines = experiment: siRNA HINT1 knockdown in renal cancer cell lines; assay type: cell-based
Protocol: (§1) Cells were transfected with stealth siRNA (catalog no. HSS104782, catalog no. HSS104784, catalog no. HSS179235; ThermoFisher) targeting HINT-1 using Lipofectamine RNAiMAX (Invitrogen) following the manufacturer's protocol. At 48 hours posttransfection, cells were treated and cell viability was measured 96 hours posttransfection as described above. Samples for Western blot analysis were harvested 48 hours posttransfection. For gene-depletion experiments, approximately 4 × 10^5 HAP1 cells were seeded per well in a 6-well plate and grown to approximately 50% confluency. After 24 hours, cells were transfected with lentiCRISPR v2 plasmid (GenScript) containing a guide RNA (gRNA) targeting gene of interest using Turbofectin (catalog no. TF81001, OriGene) according to manufacturer's instruction. The following sequences were used: HINT-1 CRISPR gRNA 2 ([…]) and NUDT2 CRISPR gRNA 2 ([…]). At 24 hours posttransfection, positively transfected cells were selected using […] puromycin for 72 hours. After selection, surviving colonies were expanded and used for downstream analysis. For clonal selection, clones were selected using limited dilution and expanded into a 6-well plate for Western blot screening.

CAKI-1 = experiment: MTT cell viability, CAKI-1; assay type: cell-based; settings: Homo sapiens, CAKI-1, 48 h
Protocol: (§2) Cells (10^4) were seeded into 96-well plates and then treated with NUC-7738 (lot 5132/E00393/119) or 3′-dA (cordycepin, catalog no. C3394, lot 067M4182, Sigma) for 48 hours. One and a half milligrams per milliliter MTT (catalog no. M6494, Invitrogen) in a 1:1 ratio was added to cell culture media. After a 2-hour incubation at 37°C, media was removed and 70 μl of isopropanol was added. Optical densities at 570 nm were measured using POLARstar Omega plate reader. Readouts were normalized and IC50 values were calculated using a nonlinear regression model in Graphpad prism (v8.3.0). Each biological replicate (at least 3) was performed in 4 technical replicates to calculate the average IC50 value. To measure apoptosis, the Guava NexinReagent (Luminex Corp.) was used following manufacturer's instructions. Fluorescence staining was measured with an automated 96-well Guava easyCyte Flow Cytometer (Luminex Corp.).

[2] = NuTide:701 first-in-human phase I study; assay type: in vivo
Protocol: A Safety Study of NUC-7738 in Patients with Advanced Solid Tumours or Lymphoma, ClinicalTrials number: NCT03829254. Approved by Oxford C Ethics Committee ref 18/SC/0628.
This study is currently ongoing at three centers in the United Kingdom: Edinburgh, Newcastle, and Oxford. As of June 1, 2021, 28 patients with advanced cancers have been enrolled and received escalating doses of 14–900 mg/m^2 (intravenous infusion from 30–120 minutes) once weekly until dose-limiting toxicity or disease progression occurs. Intrapatient dose escalation ensures those starting at lower dose levels of NUC-7738 are continuously moved to higher doses once safety has been established. The most common cancers to be included are immunotherapy-resistant melanoma (n = 8), colorectal cancer (n = 3), and gastric and lung cancer (n = 2 each). […] A posttreatment biopsy was taken from a patient with melanoma and compared with their archived specimen collected prior to enrolling in the clinical trial. […] Transcriptional profiling of the specimens using RNA-seq identified more than 1,069 genes which were at least 2-fold differentially expressed after treatment with NUC-7738 (Fig. 6C and Supplementary Fig. S6A–C).

[3] = system: Gastric or cervical cancer cells; experiment: Apoptosis by cleaved PARP Western blot; assay type: cell-based; settings: 50 and 100 μmol/L, 24 hours
Protocol: as §2
Cells were harvested and lyzed using RIPA lysis and extraction buffer (Thermo Scientific) following manufacturer's protocol. Twenty to 30 μg of total protein lysates was loaded on Mini-PROTEAN TGX precast gels (Bio-Rad). Separated proteins were transferred to a polyvinylidene difluoride (PVDF) membrane using Trans-Blot Turbo Transfer System (Bio-Rad) followed by incubation with primary and horseradish peroxidase (HRP)–conjugated secondary antibodies [anti-mouse, catalog no. […]

[4] = Beagle dog 4-week toxicology and toxicokinetics
501MEL = experiment: MTT cell viability, 501MEL; assay type: cell-based; settings: 48 h
Protocol: as §2

HINT1 KO HAP1 cells = experiment: Sensitivity of HINT1 CRISPR/Cas9 knockout HAP1 cells; assay type: cell-based, human; settings: HAP1 polyclonal and clonal HINT1 KO vs WT
Protocol: as §1
HAP1 cells were seeded at a density of 10,000 cells per well in 6-well plates and indicated drug concentrations were added. […]

UO-31 = experiment: MTT cell viability, UO-31; assay type: cell-based; settings: Homo sapiens, UO-31, 48 h
Protocol: as §2

[5] = set-up: method as in earlier work; settings: patients, particularly immunotherapy-resistant melanoma; cited from earlier work
HAP1 cells = experiment: HAP1 viability with ADA, hENT1 or ADK inhibitors; assay type: cell-based, human; settings: HAP1, EHNA, NBTI, A134974
Protocol: as §2
To assess whether NUC-7738 was resistant to ADA and could bypass ADK and hENT1 (SLC29A1), cell viability was measured after treatment with their specific and corresponding protein inhibitors: erythro-9-(2-Hydroxy-3-nonyl) adenine hydrochloride (EHNA), A134974, and S-(4-nitrobenzyl)-6-thioinosine (NBTI), respectively ([16, 17, 34, 35]).

cancer cell lines = experiment: IC50 across a wide set of cancer cell lines; assay type: cell-based
Protocol: as §2

In the case of `C[C@H](NP(=O)(OC[C@@H]1C[C@@H](O)[C@H](n2cnc3c(N)ncnc32)O1)Oc1ccccc1)C(=O)OCc1ccccc1` (stereo partly drawn) [NUC-7738, 3′-deoxyadenosine-5′-O-phenyl-(benzyloxy-L-alaninyl)-phosphate], the half-life in serum [1] is listed as 424 min, the “sensitivity after HINT1 depletion to minimal residual levels” value (renal cancer cell lines) is listed as “no difference in sensitivity” and the IC50 (CAKI-1) is listed as 33 µM. For the same molecule, the tolerability ([2]; patients with advanced cancers, 14–900 mg/m^2 iv once weekly) was “well tolerated with no dose-limiting toxicities reported”, the “plasma PK profile” value ([2]; patients, escalating doses) was “dose-proportional increase in Cmax and AUC” and the “apoptotic cell death, cleaved PARP-1” value [3] was “induced apoptotic cell death”. The “mean AUC(0-t)” value ([4]; 10 mg/kg/day, sex mean at day 26) was 638 ng/h/mL, the toxicology findings ([4]; 20 mg/kg/day, iv slow injection, 4 cycles) was “induced changes in the liver and bone marrow” and the “systemic exposure (mean Cmax and AUC 0-t), single vs repeated administrations” value ([4]; all doses, significance >2-fold change) was “No significant differences”. For the same molecule, the Tmax ([4]; both, beagle, plasma, iv) was 15 min, the clearance ([4]; both, beagle, plasma, iv) was 245 to 533 mL/min/kg and the half-life ([4]; both, beagle, plasma, iv) was 13.2 to 27.6 min. The Cmax ([4]; both, beagle, plasma, iv, 10 mg/kg/day) was 1560 ng/mL, the “highest nonseverely toxic dose (HNSTD)” value ([4]; iv, 4 cycles (4 weeks)) was 10 mg/kg/day and the IC50 (501MEL) was 10.9 µM. For the same molecule, the “sensitivity after depletion of HINT1” value (HINT1 KO HAP1 cells) was “markedly reduced sensitivity”, the IC50 (UO-31) was 42.2 µM and the antitumor activity [5] was “Encouraging signals of antitumor activity and prolonged disease stabilization”. For the same molecule, the “potency upon inhibition of ADA, hENT1 or ADK” value (HAP1 cells) was “mostly unaffected”, the IC50 (cancer cell lines; read-out: IC50 in the low μM range) was less than 10 µM and the IC50 (cancer cell lines; read-out: mean IC50) was 18.8 µM.
